Here are results for 5 molecules from patent publication US10736923B2, “Methods and compositions for generating chondrocyte lineage cells and/or cartilage like tissue” (UNIVERSITY HEALTH NETWORK, priority 2013, dated 2020).

What all share (format): cell-based, human
Assay [1] deals with hPSC-derived articular chondrocytes. The assay can be described thus: Response of hPSC-derived articular-like cartilage to IL1β. The protocol: FIG. 9. hPSC-derived articular-like cartilage respond appropriately to the pro-inflammatory molecule IL1β. (A) The experimental plan is depicted. Articular cartilage tissues were derived from hPSCs for 10 weeks in the presence of TGFβ3. Cartilage tissues (micromasses) were treated for two weeks (from week 10-12) with TGFβ3 or IL1β (10 ng/ml), as indicated. […] Values represent copy number mRNA relative to TBP (n=7). Error bars indicate s.e.m. (K) Histological analysis of 12-week tissues after treatments as indicated. Metachromatic toluidine blue staining indicates proteoglycans.
Access to an unlimited supply of hPSC-derived articular-like cartilage provides an opportunity to establish platforms to analyze the effects of pro-inflammatory cytokines such as […] (IL1beta), known to play a role in the early stages of osteoarthritis (OA). […] These enzymes cleave proteins found in cartilage extracellular matrix (ECM), such as collagens and aggrecans, which leads to the degradation of cartilage tissue. Significant upregulation of MMP13 and ADAMTS4 was observed only in the absence of TGFbeta3. ADAMTS5 was induced with or without TGFbeta3 present.

In assay [2] the test system is hPSC-derived paraxial mesoderm. The assay can be described thus: Chondrocyte specification in micromass culture with TGFB3 or BMP4 (histology, scatter flow cytometry, qRT-PCR, immunostaining). The following applies: for CILP2 expression / COL2A1 expression / PRG4 (lubricin) expression: 12 weeks of micromass culture, TGF agonist 10 ng/ml. The source says:
FIG. 4. TGFB3 and BMP4 specify chondrocytes and cartilage-like tissues with articular cartilage and growth plate cartilage phenotypes. (A) Micrographs of 5 week old micromasses derived with TGFB3 or BMP4, 20× magnification. (B) Tissue histology (stained with toluidine blue) of 13 week cartilage tissues derived with TGFB3 or BMP4. […] (C) Flow cytometric analysis of forward and side cell scatter parameters of 3 week and 5 week old micromasses. Side scatter indicates cell granularity and forward cell scatter indicates cell size. (D) Comparison of hPSC-derived micromass tissues to fetal primary chondrocyte derived micromass tissues and the developing human fetal femur cartilage. Articular cartilage regions appear to have smaller cells in size compared to growth plate like regions, which contain cells which appear enlarged (hypertrophic). Cartilage tissues in micromass as well as in the fetal femur stain uniformly with the toluidine blue stain (images are pink/purple in color and indicate the presence of cartilage proteins). The BMP4-treated micromass tissues contain a large number of enlarged cells which is similar to the bottom panel of the fetal cartilage which represents a growth plate cartilage. TGFB3 treated micromass cultures contain fewer, if any, enlarged chondrocytes, and appear similar to the upper panel of the fetal cartilage which is the site of articular cartilage. (E) Micrograph using GDF5 instead of BMP4 to generate hypertrophic chondrocytes. (F) Histological analyses of cartilage tissues derived from hiPSCs stained with Toluidine blue after 12 weeks. (G,H) Immunohistochemical staining of hESC-derived cartilage tissues for type II Collagen (G, 8 week tissues), and lubricin (H, 12 week tissues).
FIG. 5. Gene expression analyses of chondrocyte specification in the presence of TGFB3 or BMP4 during stages 3 and 4 of differentiation respectively. General chondrocyte genes Sox9 (A) and collagen 2 (B), hypertrophic genes collagen 10 (C), Runx2 (D), osterix (E) and alkaline phosphatase (F), articular cartilage associated genes lubricin (G) and cartilage intermediate layer protein 2 (CILP2) (H), interzone-related (joint progenitor) genes GDF5 (I), ERG (J) and Wnt9a (K). Expression is copy number relative to TBP (n=3 to 8 biological replicates) and is compared to primary fetal chondrocytes (aged 16 to 19 weeks, n=4), primary healthy adult articular chondrocytes (n=2), and growth plate-like chondrocytes isolated from the iliac crest of an adult (n=1). T15 Mesoderm indicates day 15 hESC-derived paraxial mesoderm (DM+FGF-treated). Error bars indicate s.e.m.
FIG. 8. TGFβ1, TGFβ2, and TGFβ3 generated articular chondrocytes from hPSC-derived paraxial mesoderm. COL2A1, lubricin, and CILP2 gene expression after 12 weeks of micromass culture in the presence of TGF agonists as indicated (10 ng/ml). Values represent copy number mRNA relative to TBP. Error bars indicate s.e.m.
Previous studies have shown that TGFBeta/BMP signaling is required to generate chondrocyte progenitors from paraxial mesoderm. […] Following 10 days of TGFb3 treatment (day 25 total), cultures could be switched to media containing BMP4 or maintained in TGFb3 (stage 4) in order to specify subsets of chondrocytes (articular/non-hypertrophic or growth plate/hypertrophic). To determine the chondrocyte potential of the day 15 mesoderm populations, the cells were plated at high cell density in a 20 microliter volume on tissue culture treated Petri dishes for an hour (micromass) and then the ‘spot’ was submerged/covered with media. In our initial studies, the cells were ‘spotted’ in a media containing 2% fetal bovine serum. However, this short serum exposure can be omitted with no effects on cartilage formation at later stages, making this protocol optionally serum-free. After 2 to 3 days, serum-free media containing TGFb3 is added to the culture to generate chondrocyte progenitors. […]

In assay [3] the test system is primitive streak-like mesoderm population. Description: Paraxial mesoderm specification in monolayer culture, flow cytometry of cell surface markers. The following applies: day 4 to day 6 with Dorsomorphin, bFGF, SB431542; read on day 15. The protocol: FIG. 2. Characterization of paraxial mesoderm derived from hPSCs. Flow cytometric analysis of day 5 mesoderm treated with no additional factors (0 DM, no FGF), FGF, 4 μM DM, or 4 μM DM+FGF. Day 5 profiles depict KDR and PDGFRa expression, a double-positive population (gated) indicates mesoderm that has cardiac potential (20). Treatment with FGF results in less PDGFRa expression on day 5. (B) Expression of cell surface markers CD73, CD105, and PDGFR-beta on mesoderm populations on day 15 of differentiation. […] Experimental cell treatments during day 4 to day 6 include the combination of Dorsomorphin, bFGF, TGFbeta inhibitor (SB431542) in the presence or absence of the wnt pathway inhibitor IWP2. Flow cytometric analyses of CD73 and CD105, on day 15 mesoderm populations derived as indicated. (D) Gene expression analyses of day 15 mesoderm populations derived in indicated factors. Nkx2.5 is a cardiac transcription factor, Meox1 and Nkx3.2 are paraxial mesoderm and somite transcription factors. (E) Micrographs depicting 1 day old micromasses and 1 week old micromasses derived from day 15 mesoderm populations as indicated. (F) Flow cytometric analysis of cardiac troponin T (cTnT) expression in 1 week old micromasses derived from day 15 mesoderms as indicated. […] To generate chondrocytes, it is essential to first specify this PS population to a paraxial mesoderm fate. Previous studies have shown that mesoderm populations that express cell surface markers often found on mesenchymal stem cells, CD73 and CD105, have chondrogenic potential (Hwang, Kim et al. 2006). The expression of these two cell surface markers, as well as the expression of transcription factors Meox1 and Nkx3.2 combined with the lack of expression of Nkx2.5 to monitor the emergence of a paraxial mesoderm population was used. Previous experiments in the mouse ESC model system have shown the importance of inhibiting the BMP signaling pathway in the context of FGF signaling to prevent the emergence of cardiac mesoderm and promote the development of paraxial mesoderm (Craft, Ahmed et al. 2013). […] Very few cells in untreated mesoderm conditions expressed CD73 and CD105 (7.46%, FIG. 2B). […] The changes in expression of these surface markers were accompanied by the upregulation of paraxial genes Meox1 and Nkx3.2 (FIG. 2C). […] Thus, in some cell lines, the efficiency of paraxial mesoderm specification may be improved in the presence of a Wnt pathway antagonist immediately following the PS mesoderm induction phase.
(A flow cytometer gives signals particle by particle.)

The mark [4] stands for this setting: IL1beta in presence of TGFbeta3.
[5] abbreviates: IL1β 10 ng/ml, week 10-12, absence of TGFb3.
The mark [6] stands for this setting: IL1β 10 ng/ml, week 10-12, absence of TGFbeta3.

As for IL1beta: pro-inflammatory cytokine, in assay [1] (setting [4]), the CILP2 expression entry is listed as “downregulated” and the “lubricin (PRG4) expression” value is on record as “downregulated”. The ADAMTS5 expression entry in assay [1] (IL1beta with TGFbeta3 present) is given as “induced”. Besides, in assay [1] (IL1β 10 ng/ml, week 10-12), the ACAN expression entry is given as “reduction”, the COL2A1 expression result is listed as “reduction” and the “vascular endothelial growth factor (VEGF) expression” value is recorded as “increase”. For the same molecule, in assay [1] (IL1β 10 ng/ml, week 10-12, 12-week tissues), the “proteoglycans in the tissue (toluidine blue)” value is recorded as “noticeable loss”. In assay [1] (setting [5]), the ADAMTS4 expression entry is recorded as “upregulation”, the ADAMTS5 expression entry is “upregulation”, the MMP2 expression result is given as “upregulation” and the MMP13 expression result is listed as “upregulation”. For the same molecule, in assay [1] (setting [6]), the CILP2 expression entry was “downregulated” and the “lubricin (PRG4) expression” value was “downregulated”.
In the case of TGFbeta1: TGFbeta agonist, in assay [2], the CILP2 expression entry is on record as “upregulated”, the COL2A1 expression entry is recorded as “upregulated” and the “PRG4 (lubricin) expression” value is “upregulated”.
For the molecule `Cc1ccc2nc(NC(=O)CSc3nc4c(c(=O)n3-c3ccccc3)SCC4)sc2c1` [IWP2, N-(6-Methyl-2-benzothiazolyl)-2-[(3,4,6,7-tetrahydro-4-oxo-3-phenylthieno[3,2-d]pyrimidin-2-yl)thio]-acetamide, reference compound], in assay [3], the “CD73 and CD105 expression with Wnt inhibition” value was “improve the efficiency of CD73 and CD105 expression”.

B1: TGFbeta2: TGFbeta agonist (protein, UniProt P61812 303-414, looked up)
Transforming growth factor …: ALDAAYCFRNVQDNCCLRPLYIDFKRDLGWKWIHEPKGYNANFCAGACPYLWSSDTQHSRVLSLYNTINPEASASPCCVSQDLEPLTILYYIGKTPKIEQLSNMIVKSCKCS
Consider B1, for which, in assay [2], the CILP2 expression result is recorded as “upregulated”, the COL2A1 expression entry was “upregulated” and the “PRG4 (lubricin) expression” value is “upregulated”.

B2: GDF5: growth and differentiation factor 5, BMP4 agonist (protein, UniProt P43026 382-501, looked up)
Growth/differentiation factor …: APLATRQGKRPSKNLKARCSRKALHVNFKDMGWDDWIIAPLEYEAFHCEGLCEFPLRSHLEPTNHAVIQTLMNSMDPESTPPTCCVPTRLSPISILFIDSANNVVYKQYEDMVVESCGCR
Turning to B2, the “tissue histology (toluidine blue), chondrocyte size” value in assay [2] (13 week old tissues, GDF5 instead of BMP4) was “generates hypertrophic chondrocytes”.
